Results taken from patent publication US11377393B2, “Method and composition for improving plant growth” (DANSTAR FERMENT AG, priority 2016, dated 2022).

Test system: triticale (var. Bellac)
Test: Effect of inactive yeast and/or yeast derivatives in combination with nitrogen sources on plant growth (pot test, dry weight of aerial parts)
Type: in vivo
Conditions: triticale seeds in 20 g soil, 30 days, nitrogen 15 kg/ha, applied liquid to soil, letters = significance groups (p<0,1 Dunnett)
Protocol: Seeds of triticale (var. Bellac) coated with insectide Gaucho 350 and fungicide Rédigo® (Bayer) were used in the study. The tested nitrogenous components were the following: urea and calcium nitrate.
Two seeds were grown in individual plastic pots or cells containing equal quantity of soil (20 g). The treatments T1 to T4, T6, T7, T9, T10 and T13 (see Table 1) were distributed randomly in lines, with each line comprising of all treatments. Treatments T1 to T4, T6, T7, T9, T10 and T13 were repeated seven times and the experiment was repeated twice over time.
The treatments T1 to T4, T6, T7, T9, T10 and T13 were applied, in a liquid form, directly in the soil surrounding the seeds. The treatments were mixed with sterile distilled water in a total 5 ml samples. For the negative control, 5 ml of sterile distilled water was added. Seeds were grown under controlled conditions for 30 days. Growth conditions were 18/15 C for 10/14 hours (day/night) and 70% RH. Growth measurements were taken by measuring length and dry weight of the aerial part of the plants.
The growth in weight of the plants (the dry weight of the aerial parts) for each treatment was compared by statistical analysis.

| Compound | Dry weight gain average (Table 5, urea series) | Dry weight gain average (Table 4, calcium nitrate series) |
| --- | --- | --- |
| NC(N)=O [Treatment T3, Urea] | 0.153bc | – |
| O=[N+]([O-])[O-].O=[N+]([O-])[O-].[Ca+2] [Treatment T4, Calcium nitrate] | – | 0.106b |
